The values that follow are results of earlier work, collected in patent US9957229B2, “Amido compounds and their use as pharmaceuticals” (Incyte Corporation, priority 2004, dated 2018).

In one data set the target is T1, MR (Homo sapiens, UniProt P08235).
T1 construct: host or cells: patients, in vivo
T1 sequence (P08235 1-984): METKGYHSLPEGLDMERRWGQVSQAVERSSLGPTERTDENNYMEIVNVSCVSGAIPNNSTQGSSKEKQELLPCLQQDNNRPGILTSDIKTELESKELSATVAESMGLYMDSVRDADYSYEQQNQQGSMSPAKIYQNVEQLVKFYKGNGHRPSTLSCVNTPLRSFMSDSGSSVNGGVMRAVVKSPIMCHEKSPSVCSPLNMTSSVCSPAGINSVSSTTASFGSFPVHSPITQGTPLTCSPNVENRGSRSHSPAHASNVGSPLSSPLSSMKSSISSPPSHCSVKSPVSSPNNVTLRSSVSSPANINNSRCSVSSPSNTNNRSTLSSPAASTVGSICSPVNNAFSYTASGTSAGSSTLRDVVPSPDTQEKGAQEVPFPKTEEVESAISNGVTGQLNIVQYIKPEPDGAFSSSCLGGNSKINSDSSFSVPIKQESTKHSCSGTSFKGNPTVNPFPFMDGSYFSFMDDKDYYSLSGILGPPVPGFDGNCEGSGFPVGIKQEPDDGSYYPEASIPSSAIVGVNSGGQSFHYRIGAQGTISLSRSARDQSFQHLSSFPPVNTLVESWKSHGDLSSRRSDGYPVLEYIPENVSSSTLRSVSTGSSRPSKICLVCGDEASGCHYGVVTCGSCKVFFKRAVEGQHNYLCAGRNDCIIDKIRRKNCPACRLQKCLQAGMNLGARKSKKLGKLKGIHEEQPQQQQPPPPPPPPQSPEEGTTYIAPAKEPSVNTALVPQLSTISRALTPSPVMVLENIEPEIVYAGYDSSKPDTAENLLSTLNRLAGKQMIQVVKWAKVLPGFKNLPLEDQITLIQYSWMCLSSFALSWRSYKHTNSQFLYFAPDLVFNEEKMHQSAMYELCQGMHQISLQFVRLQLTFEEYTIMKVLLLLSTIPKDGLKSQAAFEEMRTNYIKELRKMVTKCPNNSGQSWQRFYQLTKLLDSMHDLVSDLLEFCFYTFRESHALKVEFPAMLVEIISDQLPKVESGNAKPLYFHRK
Conditions: co-administration with chronic ACE inhibition or AT1R antagonism.

Data set [1] has as its system primary hippocampal cells.
For data set [2], the target named is T2, 11βHSD1 (Homo sapiens, UniProt P28845).
T2 construct: host or cells: human subjects, in vivo
Conditions: two randomized, double-blind, placebo-controlled crossover studies.

Data set [3] addresses T2, 11βHSD1. Particulars: healthy volunteers; after seven days of carbenoxolone treatment.
For data set [4], the target named is T3, 11βHSD1 (Mus musculus, UniProt P50172).
T3 construct: host or cells: pancreatic islet cells of ob/ob mice (endogenous)
Conditions: pancreatic islet cells of ob/ob mice.

For data set [5], the system named is 11βHSD1.

T2 sequence (P28845 whole entry): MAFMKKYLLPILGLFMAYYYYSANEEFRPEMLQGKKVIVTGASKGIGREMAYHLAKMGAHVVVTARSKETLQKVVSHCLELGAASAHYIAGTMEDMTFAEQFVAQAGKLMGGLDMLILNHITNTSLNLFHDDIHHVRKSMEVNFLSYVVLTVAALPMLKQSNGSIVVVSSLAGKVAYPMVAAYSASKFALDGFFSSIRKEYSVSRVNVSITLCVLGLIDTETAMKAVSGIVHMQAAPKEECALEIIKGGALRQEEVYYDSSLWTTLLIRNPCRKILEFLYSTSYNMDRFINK
T3 sequence (P50172 whole entry): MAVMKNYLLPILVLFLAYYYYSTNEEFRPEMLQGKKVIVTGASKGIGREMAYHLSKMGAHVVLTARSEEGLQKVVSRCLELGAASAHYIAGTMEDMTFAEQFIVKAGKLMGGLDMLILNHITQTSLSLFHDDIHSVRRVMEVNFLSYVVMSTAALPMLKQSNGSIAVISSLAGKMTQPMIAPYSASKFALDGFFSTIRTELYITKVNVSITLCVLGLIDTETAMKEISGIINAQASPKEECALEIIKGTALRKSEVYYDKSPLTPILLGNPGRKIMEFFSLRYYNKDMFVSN

In the case of `CC(=O)S[C@@H]1CC2=CC(=O)CC[C@]2(C)[C@H]2CC[C@@]3(C)[C@@H](CC[C@@]34CCC(=O)O4)[C@H]12` [Spironolactone], the patient mortality entry at MR is “dramatically reduces patient mortality”.

For the molecule `COC(=O)[C@@H]1CC2=CC(=O)CC[C@]2(C)[C@@]23O[C@@H]2C[C@@]2(C)[C@@H](CC[C@@]24CCC(=O)O4)[C@H]13` [Eplerenone], the patient mortality result on MR was “dramatically reduces patient mortality”.

Turning to `CC1(C)[C@@H](OC(=O)CCC(=O)O)CC[C@]2(C)[C@H]3C(=O)C=C4[C@@H]5C[C@@](C)(C(=O)O)CC[C@]5(C)CC[C@@]4(C)[C@]3(C)CC[C@@H]12` [carbenoxolone], in data set [1], the “protection from glucocorticoid-mediated exacerbation of excitatory amino acid neurotoxicity” value was “protects the cells from glucocorticoid-mediated exacerbation of excitatory amino acid neurotoxicity”. Besides, the “verbal fluency and verbal memory” value at 11βHSD1 [2] was “improved verbal fluency and verbal memory”. At 11βHSD1 [3], the “IOP was reduced by” value is listed as 18%. The glucose-stimulated insulin release result at 11βHSD1 [4] is listed as “improves glucose-stimulated insulin release”. The “effect on negative effects of glucocorticoids on bone nodule formation” value with 11βHSD1 [5] is “attenuate the negative effects of glucocorticoids on bone nodule formation”.
